Laboratory results taken from publication PMC6694155, “PTPσ inhibitors promote hematopoietic stem cell regeneration” (Nature Communications, 2019).
Where “and” joins values, the source holds several entries; their conditions need not be identical. Equal entries are not always repeated.

Tests used:
[1] = target: T1, MKP5 (Mitogen-activated Protein Kinase Phosphatase 5) (Homo sapiens, UniProt Q9Y6W6); assay: PhosphataseProfiler screen: MKP5; type: biochemical; conditions: 0.27 g/mL DJ001; replicates
T1 construct: purchased Eurofins Pharma Discovery Services UK
Description: (§1) Compound DJ001 was evaluated in a PhosphataseProfiler™ screen at 10 μM and 1 μM (2.7 μg/mL and 0.27 μg/mL) concentrations at Eurofins Pharma Discovery Services UK (Study number UK022-0004033) against a panel of 21 Phosphatases. In each experiment, the respective reference antagonist/agonist was tested directly with DJ001 and the data were compared with historical values determined at Eurofins. DJ001 compound inhibition was calculated as percentage inhibition of the enzymatic activity compared with control.

[2] = target: T2, PTPMEG2 (Protein Tyrosine Phosphatase Non-Receptor Type 9) (Homo sapiens, UniProt P43378); assay: PhosphataseProfiler screen: PTPMEG2; type: biochemical; conditions: replicates
T2 construct: purchased Eurofins Pharma Discovery Services UK
Description: as §1

[3] = target: T3, RPTPμ (Receptor Protein Tyrosine Phosphatase Mu) (Homo sapiens, UniProt P28827); assay: PhosphataseProfiler screen: RPTPμ; type: biochemical; conditions: replicates
T3 construct: purchased Eurofins Pharma Discovery Services UK
Description: as §1

C57BL/6 mice = assay: 5FU chemotherapy model, hematologic recovery; type: in vivo, mouse
Description: Ten-week-old female C57BL/6 mice received a single tail vein injection of 250 mg/kg 5FU in 100 μL PBS. Two hours post 5FU injection, mice were administered daily subcutaneous injections of 5 mg/kg (100 μg per mouse) DJ001 or vehicle in a volume of 100 μL for 8 days. DJ001 injections were prepared in PBS, 50% PEG-400, and 10% DMSO. Corresponding vehicle injections contained PBS, 50% PEG-400, and 10% DMSO. Retro-orbital blood was collected on day + 8, + 11, and + 14 after 5FU treatment with capillary pipettes (Fisher Scientific). Complete blood counts were measured using a Hemavet 950 instrument (Drew Scientific).

p250GAP in BM lin− cells = assay: p250GAP phospho-tyrosine sandwich ELISA; type: cell-based, mouse
Description: Clear, pre-blocked Protein A-coated Microtiter wells (Fisher Scientific, #15132) were incubated with ARHGAP32 polyclonal antibody (Bioss, #bs-9296R, 1:500) in antibody dilution buffer (150 mM NaCl, 25 mM HEPES pH 7.2, 0.5% bovine serum albumin, 0.05% Tween 20) for 3 h at room temperature (RT). Subsequently, the plate was washed three times and phosphorylated p250GAP from BM lin^− cell lysate was added to each well. BM lin^− cells were collected in NP40 buffer (ThermoFisher Scientific; FNN0021) supplemented with 1× complete, Mini, EDTA-free Protease Inhibitor Cocktail (Sigma Aldrich; 4693159001) and 1× PhosSTOP (Sigma Aldrich; 4906845001). Following incubation for 2 h at 4 °C, the plate was completely emptied (without washing) and exposed to 50 μL of a fixation solution (0.5% formaldehyde in 300 mM NaCl, 20 mM sodium phosphate buffer, pH 7) for 10 min. The plate-bound, phosphorylated p250GAP was measured by a specific anti-phospho-tyrosine peroxidase-coupled antibody (Sigma Aldrich, #A5964-1VL, 1:500) in antibody dilution buffer. Incubation was for 1 h at RT. Peroxidase activity was measured by a Tecan Infinity plate reader using BM Chemiluminescence ELISA Substrate (Sigma Aldrich, #11582950001).

BM KSL cells [4] = assay: Annexin V/7AAD apoptosis assay of BM KSL cells from mice 24 h post 500 cGy TBI; type: in vivo, mouse
Description: Eight- to ten-week-old female C57BL/6 mice were irradiated with 500 cGy TBI followed by subcutaneous injections of 5 mg/kg DJ001 or vehicle, or 5 mg/kg DJ001 plus 40 mg/kg EHT1864. Twenty four hours after irradiation, mice were killed to collect BM cells for Annexin V apoptosis analysis. BM cells were stained with APC-Cy7-conjugated anti-mouse Sca1 (BD Biosciences, #560654, 1:100), PE-conjugated anti-ckit (BD Biosciences, #553355, 1:100), and V450 lineage cocktail (BD Biosciences, #561301, 1:10) antibodies for 30 min at 4 °C. Cells were then resuspended in 1× Annexin V binding buffer and then stained with FITC-conjugated anti-Annexin V antibody (BD Biosciences, #556547,1:50) and 7AAD antibody (BD Biosciences, #559925, 1:40)[68]. For in vitro human BM cell apoptosis assays, isolated human BM CD34^+ cells were plated into 96-well plates and then irradiated with 300 cGy. Immediately after irradiation, cells were treated with 5 μg/mL DJ001 or vehicle for 24 h and then collected for Annexin V cell apoptosis analysis. For cell cycle analysis, BM KSL cells were irradiated at 300 cGy and then treated with 1 μg/mL DJ001 or vehicle for 36 h. Subsequently, cells were resuspended in 200 μL of PBS, fixed with 1 mL of ice-cold fixation solution (0.25% Saponin, 2.5% PFA, 2% fetal calf serum (FCS) in PBS), and incubated for 30 min on ice. Cells were washed in Saponin buffer (0.25% Saponin, 2% FCS in PBS) and resuspended in 200 μL of Saponin buffer containing 20 μL of FITC-conjugated anti-Ki67 antibody (BD Biosciences, #556026, 1:10) and 1 μL of RNase (Qiagen, #19101, 100 mg/mL). After 30 min of incubation, cells were washed in Saponin buffer and resuspended for flow analysis in 200 μL of Saponin buffer containing 5 μL 7AAD (BD Biosciences, #559925, 1:40).

BM KSL cells [5] = assay: Transendothelial migration assay; type: cell-based, mouse
Description: For the transendothelial migration assay,VeraVec^TM mouse spleen ECs (Angiocrine Biosciences) were cultured to confluence in […] pore transwells (Corning Incorporated). Transwells were then seeded with 50,000 sorted BM KSL cells in IMDM with 10% FBS, 1% pen-strep, 20 ng/mL TPO, 125 ng/mL SCF, and 50 ng/mL Flt3 ligand with or without 1 µg/mL of DJ001. SDF-1, 500 ng/mL (R&D Systems), was added to the bottom chamber of the transwell. At 18 h post incubation, cells in the bottom chamber were collected and cell counts were performed.

[6] = day +8 following 250 mg/kg 5FU, 5 mg/kg DJ001 SQ daily
[7] = day +11 following 250 mg/kg 5FU, 5 mg/kg DJ001 SQ daily
[8] = day +14 following 250 mg/kg 5FU, 5 mg/kg DJ001 SQ daily

T1 sequence (Q9Y6W6 whole entry, species assumed): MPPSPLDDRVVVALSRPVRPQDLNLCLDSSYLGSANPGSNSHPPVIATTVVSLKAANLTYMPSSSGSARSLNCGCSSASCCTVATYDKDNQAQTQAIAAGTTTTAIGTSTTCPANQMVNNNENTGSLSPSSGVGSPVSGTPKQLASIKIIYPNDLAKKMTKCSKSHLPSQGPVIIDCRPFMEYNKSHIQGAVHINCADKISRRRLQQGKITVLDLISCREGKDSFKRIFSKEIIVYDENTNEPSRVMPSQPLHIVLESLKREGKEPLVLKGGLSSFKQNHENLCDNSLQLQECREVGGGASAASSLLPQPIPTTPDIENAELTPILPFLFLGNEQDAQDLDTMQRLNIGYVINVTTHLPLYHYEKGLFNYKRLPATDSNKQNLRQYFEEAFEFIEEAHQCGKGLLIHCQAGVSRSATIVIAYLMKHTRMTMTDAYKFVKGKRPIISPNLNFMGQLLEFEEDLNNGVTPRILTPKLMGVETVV
T2 sequence (P43378 whole entry): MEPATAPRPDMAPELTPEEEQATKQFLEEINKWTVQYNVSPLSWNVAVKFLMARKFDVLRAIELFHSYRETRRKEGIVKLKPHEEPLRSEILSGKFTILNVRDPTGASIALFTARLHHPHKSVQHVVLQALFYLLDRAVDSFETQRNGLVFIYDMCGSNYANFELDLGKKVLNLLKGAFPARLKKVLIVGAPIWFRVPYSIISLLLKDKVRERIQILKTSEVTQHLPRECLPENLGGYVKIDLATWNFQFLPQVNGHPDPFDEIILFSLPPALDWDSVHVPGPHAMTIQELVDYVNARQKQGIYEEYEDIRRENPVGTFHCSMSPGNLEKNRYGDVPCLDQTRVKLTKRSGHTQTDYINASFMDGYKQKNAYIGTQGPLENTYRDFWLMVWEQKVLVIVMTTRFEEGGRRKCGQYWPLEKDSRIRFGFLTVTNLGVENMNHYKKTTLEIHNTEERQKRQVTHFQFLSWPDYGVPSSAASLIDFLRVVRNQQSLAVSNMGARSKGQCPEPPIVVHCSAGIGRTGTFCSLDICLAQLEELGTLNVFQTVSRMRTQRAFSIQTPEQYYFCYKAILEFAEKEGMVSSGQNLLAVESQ
T3 sequence (P28827 21-1452, species assumed): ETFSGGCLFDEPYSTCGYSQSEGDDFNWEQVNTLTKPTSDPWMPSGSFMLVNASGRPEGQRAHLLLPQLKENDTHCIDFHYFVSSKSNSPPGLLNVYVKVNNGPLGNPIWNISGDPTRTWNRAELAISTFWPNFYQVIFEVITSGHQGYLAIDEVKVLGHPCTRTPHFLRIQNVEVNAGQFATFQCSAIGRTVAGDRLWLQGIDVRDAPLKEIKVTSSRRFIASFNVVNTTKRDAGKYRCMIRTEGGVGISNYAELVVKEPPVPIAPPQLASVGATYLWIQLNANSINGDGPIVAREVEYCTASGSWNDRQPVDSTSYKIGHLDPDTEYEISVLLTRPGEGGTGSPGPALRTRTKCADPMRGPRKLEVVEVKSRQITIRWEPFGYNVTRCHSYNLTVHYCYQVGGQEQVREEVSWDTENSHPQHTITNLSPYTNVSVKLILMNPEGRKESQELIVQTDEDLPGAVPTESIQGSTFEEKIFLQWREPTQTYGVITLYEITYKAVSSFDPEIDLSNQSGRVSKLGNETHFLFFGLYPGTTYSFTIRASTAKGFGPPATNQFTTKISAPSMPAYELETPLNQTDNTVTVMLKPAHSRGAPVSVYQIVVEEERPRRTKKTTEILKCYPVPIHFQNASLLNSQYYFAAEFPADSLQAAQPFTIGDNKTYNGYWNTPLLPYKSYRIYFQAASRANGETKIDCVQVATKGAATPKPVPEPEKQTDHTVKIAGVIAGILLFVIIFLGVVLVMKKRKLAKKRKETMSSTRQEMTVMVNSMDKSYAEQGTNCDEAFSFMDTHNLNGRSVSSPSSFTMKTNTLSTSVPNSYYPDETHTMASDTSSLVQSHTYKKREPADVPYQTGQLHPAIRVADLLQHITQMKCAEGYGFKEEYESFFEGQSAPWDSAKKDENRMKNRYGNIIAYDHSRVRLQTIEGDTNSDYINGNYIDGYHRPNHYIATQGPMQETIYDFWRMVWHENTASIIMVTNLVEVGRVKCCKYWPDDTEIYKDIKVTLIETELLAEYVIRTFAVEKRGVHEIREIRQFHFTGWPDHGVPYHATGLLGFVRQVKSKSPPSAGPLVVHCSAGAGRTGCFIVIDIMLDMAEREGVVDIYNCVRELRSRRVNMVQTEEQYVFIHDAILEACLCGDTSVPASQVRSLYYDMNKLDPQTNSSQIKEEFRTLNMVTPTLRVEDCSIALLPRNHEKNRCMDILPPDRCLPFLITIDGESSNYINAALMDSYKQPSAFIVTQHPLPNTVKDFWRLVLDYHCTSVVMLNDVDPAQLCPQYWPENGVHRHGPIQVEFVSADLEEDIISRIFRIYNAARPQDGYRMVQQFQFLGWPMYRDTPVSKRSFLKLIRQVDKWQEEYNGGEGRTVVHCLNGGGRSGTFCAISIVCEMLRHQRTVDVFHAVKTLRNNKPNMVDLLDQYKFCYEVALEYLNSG

O=C(/C=C\Nc1cccc([N+](=O)[O-])c1)c1ccccc1 [DJ001, (Z)-3-((3-nitrophenyl)amino)-1-phenylprop-2-en-1-one]
Supplementary Figure 1: MKP5 activity [1]: 91 and 87 and 88
Supplementary Figure 1: PTP MEG2 activity ([2]; 0.27 μg/mL DJ001): 94 (2×) and 103
Supplementary Figure 1: PTP MEG2 activity ([2]; 2.7 μg/mL DJ001): 91 and 71 and 95
Supplementary Figure 1: RPTP activity ([3]; 2.7 μg/mL DJ001): 83 and 98 and 86
Supplementary Figure 1: RPTP activity ([3]; 0.27 g/mL DJ001): 92 and 99 and 95
PB NEU counts per mouse (Figure 2i right panel) (C57BL/6 mice; day 0 (pre-5FU)): 0.64 and 0.92 and 0.54 and 0.52
PB WBCs per mouse (Figure 2i left panel) (C57BL/6 mice; day 0 (pre-5FU)): 7.24 and 8.98 and 6.9 and 7.26
PB NEU counts per mouse (Figure 2i right panel) (C57BL/6 mice; [6]): 0.01 (2×) and 0.02 (4×) and 0.03
PB WBCs per mouse (Figure 2i left panel) (C57BL/6 mice; [6]): 0.88 and 0.82 and 0.9 and 1 and 0.86 and 0.8 and 1.44
PB NEU counts per mouse (Figure 2i right panel) (C57BL/6 mice; [7]): 0.08 and 0.14 and 0.11 and 0.12 and 0.07 (2×) and 0.54
PB WBCs per mouse (Figure 2i left panel) (C57BL/6 mice; [7]): 0.78 and 3.32 and 1.78 and 2.76 and 1.44 and 3.6 and 2.12
PB WBCs and neutrophils vs 5FU control (C57BL/6 mice; day +14): significantly increased PB WBCs and neutrophils
PB NEU counts per mouse (Figure 2i right panel) (C57BL/6 mice; [8]): 4.15 and 1.27 and 0.57 and 0.4 and 0.82 and 1.88 and 2.76
PB WBCs per mouse (Figure 2i left panel) (C57BL/6 mice; [8]): 13.36 and 5.12 and 4.72 and 9.58 and 8.92 and 11.92 and 17.98
phosphorylation of p250GAP (p250GAP in BM lin− cells; 1 µg/mL DJ001): significantly increased phosphorylation of p250GAP
Figure 3a: p250GAP phosphorylation (phospho-tyrosine ELISA) (p250GAP in BM lin− cells; DJ001 vs media, individual replicates): 62.785 and 39.77 and 58.721 and 55.943 and 45.893 and 49.264 and 56.331
percentage of apoptotic BM KSL cells vs vehicle (BM KSL cells [4]; 24 h following 500 cGy TBI): significantly decreased the percentage of apoptotic BM KSL cells
Figure 3e: Annexin V/7AAD apoptosis of BM KSL cells (BM KSL cells [4]; 24 h post 500 cGy TBI, individual mice): 14.6 and 11.3 and 12.5 and 12.9 and 14.7 and 10.4 and 14.5 and 15.5 and 16.7
in vitro migration of BM KSL cells through EC monolayers (BM KSL cells [5]; 1 µg/mL DJ001, 18 h): did not alter the in vitro migration
number of cells within the lower chambers, per replicate (Supplementary Figure 8a) (BM KSL cells [5]; 1 µg/ml DJ001, 18 hours): 17.5 and 8.74 and 19.1 and 21.8 and 10.9
